Earlier results as cited in patent US11793981B2, “Microneedle device for control of thyroid hormone levels” (priority 2020, dated 2023).
Where two headings read alike, the source gives them in different places.

What was measured:
[1] = hypothyroid patients receiving LT4
[2] = pregnancy
hypothyroidism = settings: LT4-treated patients, despite supposedly adequate LT4 treatment

Row | half-life (oral LT3) | SMILES | lower serum levels of T3 [1] | crossing of the placenta [2] | half-life (oral LT4) | patients with residual symptoms of hypothyroidism and lower well-being (hypothyroidism)
1 | hours to two days | N[C@@H](Cc1cc(I)c(Oc2ccc(O)c(I)c2)c(I)c1)C(=O)O [LT3, liothyronine] |  |  |  | 
2 |  | N[C@@H](Cc1cc(I)c(Oc2cc(I)c(O)c(I)c2)c(I)c1)C(=O)O [LT4, levothyroxine] | about 10% | crosses the placenta | about seven | 10-20%
